Measurements reported in patent US7425577B2, “Lipase-colipase inhibitor” (Forskarpatent 1 SYD AB, priority 2003, dated 2008).
“Also recorded” adds a separate entry of the source.

What was measured:
[1] = molecular target: T1, Lipase and colipase, purified from human pancreatic gland (Homo sapiens, UniProt P04118+P16233); experiment: Determination of lipolysis by colipase/lipase (pH-stat, tributyrine emulsion with NaTDC); type: biochemical
T1 construct: Lipase, Purified from Human Pancreatic Gland; Colipase, Purified from Human Pancreatic Gland; from tissue; host or cells: human pancreatic gland
T1 sequence (P16233 17-465): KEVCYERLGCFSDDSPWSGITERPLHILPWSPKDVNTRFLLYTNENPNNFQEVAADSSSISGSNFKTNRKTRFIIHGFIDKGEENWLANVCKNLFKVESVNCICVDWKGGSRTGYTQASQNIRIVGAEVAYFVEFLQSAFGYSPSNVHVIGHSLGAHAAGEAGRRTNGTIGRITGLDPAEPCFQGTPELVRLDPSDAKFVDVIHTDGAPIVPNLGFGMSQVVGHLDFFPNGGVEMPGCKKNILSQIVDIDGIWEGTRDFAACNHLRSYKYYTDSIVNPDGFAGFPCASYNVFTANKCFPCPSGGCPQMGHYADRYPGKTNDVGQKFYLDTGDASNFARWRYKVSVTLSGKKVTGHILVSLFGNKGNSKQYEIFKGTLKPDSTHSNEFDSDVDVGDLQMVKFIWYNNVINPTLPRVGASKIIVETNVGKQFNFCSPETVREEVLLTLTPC
T1 sequence (P04118 23-112): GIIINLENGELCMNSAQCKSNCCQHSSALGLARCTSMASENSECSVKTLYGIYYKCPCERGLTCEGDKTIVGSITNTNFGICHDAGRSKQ
Description: Determination of Lipolysis by Colipase/Lipase
The most important enzyme in the gastro-intestinal tract being responsible for the hydrolysis of lipids/fats in the gastro-intestinal tract is lipase, pancreatic lipase, together with its protein cofactor colipase. These are two proteins, which are secreted from the pancreatic gland. […] The colipase binds to lipase in a molar 1:1 complex and then moves the complex to the triglyceride surface. In the binding between lipase and colipase hydrogen bonds are present, between arg38 of the colipase and ser343 of the lipase and from glu15 of the colipase and the asn241 of the lipase molecules. In the binding of colipase to the substrate (the lipids/fat) there are both hydrophobic bonds as well as ion-ion bonds present. By an isolated lack of colipase it has been shown that colipase has a decisive role for the lipolysis in the gastro-intestinal tract of humans. Pure lipase and colipase have been produced in accordance with the following.
Lipase, Purified from Human Pancreatic Gland
Colipase, Purified from Human Pancreatic Gland
0.5 ml of tributyrine is mixed with 15 ml of a buffer containing 1 mM CaCl2, 150 mM NaCl, 2 mM tris-maleate, pH 7.0 and 4 mM NaTDC (sodium taurodeoxycholate). An emulsion is obtained by continuous stirring. pH is titrated by means of a pH-state, where 0.1 N NaOH is added automatically to keep an constant pH. 10 μl of lipase is added from a stock solution containing 70 units of lipase/ml, followed by 10 μl of colipase from a stock solution containing 1 mg colipase/ml. An activity is registered which is determined to be 100%. An addition of an inhibitor is then made. A new assay is used for every concentration, prepared in the same way. The inhibition is registered as percentage of control. A dose-response plot is obtained for the compounds having an inhibiting ability.

[2] = Acute effect on blood lipids: single dose plus Intralipid in overnight-fasted rats; type: in vivo, female Sprague-Dawley rats; settings: single dose 200 μl plus 1 ml Intralipid (200 mg); 0, 30, 60, 120 and 180 min
Procedure: Blood was drawn in rats from the intra-orbital bullar plexus under anaesthesia and collected in ice-cold tubes. Serum was obtained by centrifugation at 3000 g for 15 min at 4° C. For acute effect of dimethylaminoethyl dodecyl ether on blood lipids, overnight-fasted rats were given 200 μl dimethylaminoethyl dodecyl ether plus 1 ml (200 mg) Intralipids orally through a gastric gavage and blood collected at 0, 30, 60, 120 and 180 min. Plasma triglycerides was determined with an Sigma diagnostics kit. Plasma fatty acids were measured by NEFAC kit (Wako chemicals GmbH, Neuss, Germany). Plasma PYY (3-36) and leptin were measured with the PYY Enzyme Immunossay kit and leptin Enzyme Immunossay (Phoenix Pharmaceuticals, USA)

Q: For `CCCCCCCCCCCCOCCN(C)C` [dimethylaminoethyl dodecyl ether], which “Activity Inhibitor” value ([1]; amount of inhibitor 0.97 μmol, control activity 0.313) is on record?
A: 0.237 µmol/min

Q: And the “Activity Inhibitor” value ([1]; amount of inhibitor 1.95 μmol, control activity 0.301)?
A: 0.204 µmol/min

Q: What about the “Activity Inhibitor” value ([1]; amount of inhibitor 3.89 μmol, control activity 0.308) of the same compound?
A: 0.127 µmol/min

Q: What about the “Activity Inhibitor” value ([1]; amount of inhibitor 6.81 μmol, control activity 0.319) of the same compound?
A: 0.069 µmol/min

Q: What about the “Activity Inhibitor” value ([1]; amount of inhibitor 9.73 μmol, control activity 0.327) of the same compound?
A: 0.033 µmol/min

Q: And the “Activity Inhibitor” value ([1]; amount of inhibitor 14.59 μmol, control activity 0.328)?
A: 0.013 µmol/min

Q: What about the “Activity Inhibitor” value ([1]; amount of inhibitor 19.46 μmol, control activity 0.332) of the same compound?
A: 0 µmol/min

Q: What about the “Serum (plasma) fatty acids vs Intralipid alone” value [2] of the same compound?
A: significantly reduced; also recorded: decreased

Q: And the “Serum (plasma) triglycerides vs Intralipid alone” value [2]?
A: significantly reduced
